Legend:
[1] = system: acute lung injury model mice; assay: Hydrochloric acid-induced acute lung injury (pneumonia, pulmonary edema); type: in vivo, mouse; settings: 50 μg/kg intraperitoneally 5 minutes before and 3 hours after HCl
Experimental: Fifty (50) μL of 0.1 N hydrochloric acid was nasally administered to 57BL/6 strain mice (male, 8 to 12 weeks old) to prepare acute lung injury model mice (hereinafter, sometimes referred to as “pneumonia group”). On the other hand, 50 μg/kg 5,6-DiHETE (manufactured by Cayman Chemical) was intraperitoneally administered 5 minutes before and 3 hours after the nasal administration of hydrochloric acid (hereinafter, sometimes referred to as “5,6-DiHETE-administered group”).
The lungs of the pneumonia group and the 5,6-DiHETE-administered group were collected 6 hours after the nasal administration of hydrochloric acid, fixed in 4% paraformaldehyde for 24 hours, embedded in paraffin, and cut into 2 μm-thick sections. Hematoxylin staining and eosin staining of these sections were performed according to a conventional method.
The wet/dry weight ratio was used as an index of pulmonary edema (Rachmilewitz D. et al., Gastroenterology, 97: 326-337(1989)). Specifically, 6 hours after the nasal administration of hydrochloric acid, the lungs were collected and the wet weights were measured. The lungs were then dried at 60° C. for 24 hours, and, thereafter, the dry weight was measured. In addition, the ventilatory capacity of the lungs was evaluated as an index of pneumonia using arterial blood oxygen saturations.

[2] = system: mouse aortae; assay: Measurement of vascular contraction of aorta (aortic ring specimens)
Experimental: After excision of the thoracic aortae from untreated mice and removal of fat and connective tissue, the aortae were cut into rings to prepare aortic ring specimens. The ring specimens were immersed in a liquid tank filled with a normal nutrient solution (physiological saline solution containing 136.9 mM NaCl, 5.4 mM KCl, 5.5 mM glucose, 23.8 mM NaHCO3, 1.5 mM CaCl2, 1.0 mM MgCl2 and 0.01 mM EDTA), and two stainless hooks were penetrated through the lumens of the ring specimens. One end of each of the stainless hooks was fixed, and the other end thereof was connected to a force-displacement transducer (T7-30-240, manufactured by Orientec Co., Ltd.) connected to a strain amplifier (3134 strain AMPL, manufactured by Yokogawa Test & Measurement Corporation). Then, the following operation (a), (b) or (c) was performed.
(a) Norepinephrine (manufactured by Sigma) was cumulatively added into the liquid tank containing the ring specimens after stabilization of each contraction (every about 30 minutes) so as to attain 0.001 μM, 0.01 μM, 0.1 μM and 1 μM, and this group was designated as a “norepinephrine-administered group” (n=4) (FIG. 3A). 5,6-DiHETE was cumulatively added into the liquid tank containing the ring specimen after stabilization of each contraction (every about 30 minutes) so as to attain 0.001 μM, 0.01 μM, 0.1 μM and 1 μM, and this group was designated as a “5,6-DiHETE-administered group” (n=4) (FIG. 3A).
(b) Norepinephrine was added into the liquid tank containing the ring specimens so as to attain 0.3 μM, and precontraction was induced by administration of norepinephrine (FIG. 3B). Then, after the contraction by the administration of norepinephrine was stabilized, acetylcholine (manufactured by Sigma) was cumulatively added after stabilization of each relaxation reaction (every about 15 minutes) so as to attain 0.03 μM, 0.1 μM, 0.3 μM and 1 μM, and this group was designated as an “acetylcholine-administered group” (FIG. 3B). After the contraction by the administration of norepinephrine was stabilized, 5,6-DiHETE was cumulatively added every about 15 minutes so as to attain 0.001 μM, 0.01 μM, 0.1 μM and 1 μM, and this group was designated as a “5,6-DiHETE-administered group” (n=4) (FIG. 3B).
(c) In order to verify the effect of 5,6-DiHETE on the acetylcholine administration, norepinephrine was added into the liquid tank containing the ring specimens so as to attain 1 μM. After the contraction by the administration of norepinephrine was stabilized, 5,6-DiHETE or a vehicle (solvent alone) was added so as to attain 1 μM. […]
In the above operations (a) to (c), tension (contractile force) generated in the aortic ring specimens was measured isometrically over time using the above force-displacement transducer under a resting tension of 3 mN, and recorded.

[3] = system: DSS-induced colitis model mice; assay: DSS-induced colitis: colitis severity (body weight, fecal score, colon length); type: in vivo, mouse (C57BL/6); settings: Day 14; 50 μg/kg/day intraperitoneally on Days 9, 11 and 13
Description: C57BL/6 strain mice (male, 8 to 12 weeks old) were fed with water containing 2% dextran sodium sulfate (manufactured by MP Bio, hereinafter sometimes referred to as “DSS”) for 4 days to prepare colitis model mice (hereinafter, sometimes referred to as “colitis group” in Examples 7 to 10). The mice taken with DSS for 4 days were fed with normal water from Day 5. The DSS intake start date was defined as Day 1 of the test, and the day before the DSS intake start date was defined as Day 0 of the test. In addition, a group in which C57BL/6 strain mice (male, 8 to 12 weeks old) were fed with normal water was defined as a “healthy group” (the same applies to Examples 8 to 10).
In order to evaluate colitis severity, the fecal condition was evaluated and the body weight was measured daily for the colitis model mice and healthy group prepared in the above item (1). The fecal condition was evaluated based on the following five-grade fecal scores. Specifically, the fecal scores were 0: normal; 1: soft but still formed; 2: very soft; 3: diarrhea; and 4: bloody feces. In addition, the colon length was measured as an index of the colitis severity.
To investigate the role of 5,6-DiHETE in the healing phase, the colitis model mice prepared in Example 7(1) were intraperitoneally injected with 5,6-DiHETE (manufactured by Cayman Chemical) (50 μg/kg/day) or HC-067047 (manufactured by Cayman Chemical) (1 mg/kg/day) on Days 9, 11 and 13 of the test (hereinafter, sometimes referred to as “5,6-DiHETE-administered group” and “HC-067047-administered group,” respectively, in Examples 9 and 10). HC-067047 is known to inhibit an increase of calcium ion concentration in endothelial cells.
The colitis severity was determined according to the index and criteria described in Example 7(2).

SMILES: CC/C=C\C/C=C\C/C=C\C/C=C\C[C@@H](O)[C@@H](O)CCCC(=O)O (racemic) [5,6-DiHETE, (±) 5,6-dihydroxy-8Z,11Z,14Z,17Z-eicosatetraenoic acid]
- decrease in arterial blood oxygen saturation [1]: suppressed
- epithelial damage and neutrophil tissue infiltration (HE-stained lung) ([1]; 6 hours): suppressed
- moisture content of the lung tissue (wet/dry weight ratio) ([1]; 6 hours): significantly reduced except one case
- reddishness of lung tissue (appearance) ([1]; 6 hours): improved
- acetylcholine-induced aortic relaxation vs vehicle-administered group ([2]; 1 μM pretreatment, precontraction 1 μM norepinephrine, acetylcholine 0.03-1 μM): significantly attenuated
- contraction of aorta ([2]; cumulative addition 0.001, 0.01, 0.1 and 1 μM): no contraction was caused
- effect on aorta precontracted by norepinephrine ([2]; precontraction 0.3 μM norepinephrine, cumulative 0.001, 0.01, 0.1 and 1 μM): did not affect the precontraction by norepinephrine
- colon length [3]: 6.4±0.1 cm
- fecal score [3]: decreased to the normal level
- relative body weight, of the initial weight [3]: 115.2±2.5%
